Where “and” joins values, the source holds several entries; their conditions need not be identical. Identical values can stand only once.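 Results reflect a 48-hour exposure of cells in 96-well plates to compound at five concentrations. Abbreviation: GI50, concentration required for 50% inhibition of growth. The concentration for full growth arrest is given as TGI.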
Assays:
Test in all cases: DTP human tumour cell line panel, 48 h
DU-145 prostate = system: DU-145 prostate
OVCAR-5 ovarian = system: OVCAR-5 ovarian
MOLT-4 leukemia = system: MOLT-4 leukemia
KM12 colon = system: KM12 colon
HCC-2998 colon = system: HCC-2998 colon
COLO 205 colon = system: COLO 205 colon
NCI-H460 lung = system: NCI-H460 lung
MDA-N = system: MDA-N
DMS 114 small cell lung = system: DMS 114 small cell lung
DLD-1 colon = system: DLD-1 colon
LXFL 529 NSCLC = system: LXFL 529 NSCLC
786-0 renal = system: 786-0 renal

Row | Compound | TGI (DU-145 prostate) | TGI (OVCAR-5 ovarian) | TGI (MOLT-4 leukemia) | TGI (KM12 colon) | TGI (HCC-2998 colon) | TGI (COLO 205 colon) | TGI (NCI-H460 lung) | TGI (MDA-N) | GI50 (DU-145 prostate) | GI50 (OVCAR-5 ovarian) | GI50 (MOLT-4 leukemia) | GI50 (KM12 colon) | GI50 (HCC-2998 colon) | TGI (DMS 114 small cell lung) | TGI (DLD-1 colon) | GI50 (COLO 205 colon) | GI50 (NCI-H460 lung) | GI50 (MDA-N) | TGI (LXFL 529 NSCLC) | TGI (786-0 renal)
1 | CC[C@@]1(O)C(=O)OCc2c1cc1n(c2=O)Cc2c-1nc1ccccc1c2/C=N\NC(=O)C(N)Cc1cnc[nH]1 (stereo not given in full) | > 100 µM | > 54.6 µM | 0.243 µM | > 28.7 µM | > 67.5 µM | > 100 µM | 4.8 µM | > 100 µM | – | – | – | – | – | – | – | – | – | – | – | –
2 | CCOC(=O)c1c(C)[nH]c(/C=C2\N=C(c3ccc[nH]3)C=C2OC)c1C | 1.6 µM | 1.51 µM | 3.09 µM | 1.32 µM | 1.18 µM | – | – | – | 0.0372 µM | 0.0404 µM | < 0.012 µM | 0.015 µM | 0.0497 µM | – | – | – | – | – | – | –
3 | O=C1C=C(N2CC2)C(=O)C=C1N1CC1 | – | 0.366 µM and 2.2 µM | 0.248 µM | 2.22 µM | 0.15 µM and 0.739 µM | 0.126 µM and 0.267 µM | 0.2 µM and 0.781 µM | 0.274 µM and 1.9 µM | 0.0109 µM | 0.0784 µM | 0.00197 µM | 0.242 µM | 0.0234 µM | 0.644 µM | 1.5 µM | 0.034 µM | 0.00521 µM | 0.113 µM | 0.527 µM | –
4 | COC(=O)c1cc2c3c(cc(O)c2[nH]1)N(C(=O)C1Cc2cc(OC)c(OC)c(OC)c2N1)CC3CCl (stereo not given) | 0.106 µM | – | 0.132 µM | 0.0142 µM | 0.113 µM | – | 0.175 µM | – | < 0.01 µM | – | < 0.01 µM | < 0.01 µM | < 0.01 µM | – | – | – | < 0.01 µM | – | – | –
5 | COc1cc(/C=C2\CN(S(=O)(=O)c3ccc(C)cc3)C/C(=C\c3cc(CN4CCCCC4)c(O)c(OC)c3)C2=O)cc(CN2CCCCC2)c1O | 3.53 µM | 3.4 µM | 5.04 µM | – | 3.37 µM | 3.58 µM | – | – | 1.85 µM | 1.88 µM | 0.918 µM | – | 1.78 µM | – | – | 1.68 µM | – | – | – | –
6 | COc1ccc(Cl)cc1NC(=O)c1c(NC(=O)C(F)(F)C(F)(F)F)sc2c1CCCCC2 | > 100 µM | > 100 µM | – | – | > 100 µM | 2.8 µM | – | – | 2.72 µM | 2.61 µM | – | – | 1.88 µM | – | – | 1.3 µM | – | – | – | –
7 | Oc1ccc2ccccc2c1N=Nc1ccccn1 | > 100 µM | > 100 µM | 12.5 µM | > 100 µM | > 100 µM | 21.4 µM | 5.49 µM | – | 1.83 µM | 4 µM | 0.296 µM | 0.919 µM | 2.35 µM | – | – | 0.431 µM | 0.532 µM | – | – | –
8 | COc1ccc(CCCC(=O)O)c(C)c1 | 56.6 µM | > 100 µM | > 100 µM | > 100 µM | – | – | > 100 µM | > 100 µM | – | – | – | – | – | – | – | – | – | – | – | > 100 µM
9 | COc1cc2cc(C(=O)N3CC(CCl)c4c3cc(N(C)C)c3ccccc43)[nH]c2c(OC)c1OC (stereo not given) | 0.492 µM | 0.039 µM | 0.0608 µM | 1.09 µM | 0.0809 µM | – | – | – | – | – | – | – | – | – | – | – | – | – | – | –

Source: PubChem BioAssay (NCI)
